Test results taken from patent US7101878B1 (Agouron Pharmaceuticals, Inc., priority 1998, dated 2006).

molecular target: T1, mouse GnRH receptor (Mus musculus, UniProt Q01776); experiment: Radioligand binding, 125I-GnRH-A, 293 cells expressing mouse GnRH receptors; conditions: 1 h, substrate remaining; 10 uM compound; closer to zero = closer to 100% inhibition; read-out: S%R 10 uM mGnRHR
T1 construct: expressed in transfected cells; host or cells: 293 cells
T1 sequence (Q01776 1-327): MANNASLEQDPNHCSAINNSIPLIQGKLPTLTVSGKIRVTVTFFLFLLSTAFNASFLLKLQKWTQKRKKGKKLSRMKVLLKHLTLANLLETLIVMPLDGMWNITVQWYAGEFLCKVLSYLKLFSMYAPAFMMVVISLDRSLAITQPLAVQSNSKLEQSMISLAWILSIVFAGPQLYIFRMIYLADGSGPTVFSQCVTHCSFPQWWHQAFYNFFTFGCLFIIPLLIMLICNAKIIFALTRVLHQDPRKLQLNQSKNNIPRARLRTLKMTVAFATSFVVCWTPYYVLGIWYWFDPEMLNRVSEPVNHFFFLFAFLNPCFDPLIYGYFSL
Method in brief: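 Bound label captured on 0.1% polyethyleneimine-treated GF/C filters, washed three times with PBS, counted. IC50 derived; identical set-up for every species.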

remaining activity at 10 µM	SMILES
-2%	Cc1cc2c(cc1Cc1ccc(C(=O)N(CCN(C)C)Cc3ccccc3[N+](=O)[O-])o1)C(C)(C)CCC2(C)C [Compound 590]
48%	Cc1cc2c(cc1Cc1ccc(C(=O)N3C[C@H]4CCCC[C@H]4CC3C(=O)NC(C)(C)C)o1)C(C)(C)CCC2(C)C (stereo partly shown) [Compound 591]
17%	Cc1cc2c(cc1Cc1ccc(C(=O)N3CC(C)OC(C)C3)o1)C(C)(C)CCC2(C)C (stereo not shown) [Compound 592]
2%	Cc1cc2c(cc1Cc1ccc(C(=O)NCCCCCO)o1)C(C)(C)CCC2(C)C [Compound 593]
16%	Cc1cc2c(cc1Cc1ccc(C(=O)NCCC3=CCCCC3)o1)C(C)(C)CCC2(C)C [Compound 594]
24%	Cc1cc2c(cc1Cc1ccc(C(=O)N(CCc3ccccn3)Cc3ccccc3)o1)C(C)(C)CCC2(C)C [Compound 595]
-1%	Cc1cc2c(cc1Cc1ccc(C(=O)NCC(O)c3ccccc3)o1)C(C)(C)CCC2(C)C (stereo not shown) [Compound 596]
11%	CCC(CO)NC(=O)c1ccc(Cc2cc3c(cc2C)C(C)(C)CCC3(C)C)o1 (stereo not shown) [Compound 597]
-4%	Cc1cc2c(cc1Cc1ccc(C(=O)N(CCC3CCCN3C)Cc3ccc4ccccc4c3)o1)C(C)(C)CCC2(C)C (stereo not shown) [Compound 598]
28%	CC(=O)N1CCCN(C(=O)c2ccc(Cc3cc4c(cc3C)C(C)(C)CCC4(C)C)o2)CC1 [Compound 599]
-4%	Cc1cc2c(cc1Cc1ccc(C(=O)N3CCC(CCCC4CCN(CCO)CC4)CC3)o1)C(C)(C)CCC2(C)C [Compound 600]
17%	Cc1cc2c(cc1Cc1ccc(C(=O)NCC(C)(C)CO)o1)C(C)(C)CCC2(C)C [Compound 601]
44%	Cc1cc2c(cc1Cc1ccc(C(=O)NCCNc3cccc4ccccc34)o1)C(C)(C)CCC2(C)C [Compound 602]
-4%	Cc1cc2c(cc1Cc1ccc(C(=O)N(CCN3CCCCC3)Cc3ccccc3)o1)C(C)(C)CCC2(C)C [Compound 603]
4%	Cc1cc2c(cc1Cc1ccc(C(=O)NCc3ccc(F)cc3)o1)C(C)(C)CCC2(C)C [Compound 604]
19%	Cc1cc2c(cc1Cc1ccc(C(=O)N3CCC(C)CC3)o1)C(C)(C)CCC2(C)C [Compound 605]
32%	Cc1cc2c(cc1Cc1ccc(C(=O)N(Cc3ccco3)C3CC(=O)N(C)C3=O)o1)C(C)(C)CCC2(C)C (stereo not shown) [Compound 606]
-2%	COC(CNC(=O)c1ccc(Cc2cc3c(cc2C)C(C)(C)CCC3(C)C)o1)OC [Compound 607]
8%	Cc1cc2c(cc1Cc1ccc(C(=O)N(C)CCCN(C)C)o1)C(C)(C)CCC2(C)C [Compound 608]
47%	Cc1cc2c(cc1Cc1ccc(C(=O)NCCS)o1)C(C)(C)CCC2(C)C [Compound 609]
0%	Cc1cc2c(cc1Cc1ccc(C(=O)N(Cc3cccnc3)Cc3cccnc3)o1)C(C)(C)CCC2(C)C [Compound 610]
11%	COC(CN(C)C(=O)c1ccc(Cc2cc3c(cc2C)C(C)(C)CCC3(C)C)o1)OC [Compound 611]
9%	Cc1cc2c(cc1Cc1ccc(C(=O)N(Cc3ccsc3)C3CCN(Cc4ccccc4)C3)o1)C(C)(C)CCC2(C)C (stereo not shown) [Compound 612]
53%	Cc1cc2c(cc1Cc1ccc(C(=O)NCc3cccc(CNC(=O)C(Cc4ccccc4)c4ccccc4)c3)o1)C(C)(C)CCC2(C)C (stereo not shown) [Compound 613]
48%	COc1cc2c(cc1OC)C(CC#N)N(C(=O)c1ccc(Cc3cc4c(cc3C)C(C)(C)CCC4(C)C)o1)CC2 (stereo not shown) [Compound 614]
7%	CCN(CC)CCNC(=O)c1ccc(Cc2cc3c(cc2C)C(C)(C)CCC3(C)C)o1 [Compound 615]
29%	Cc1cc2c(cc1Cc1ccc(C(=O)NC(C)c3ccccc3)o1)C(C)(C)CCC2(C)C (stereo not shown) [Compound 616]
-2%	Cc1cc2c(cc1Cc1ccc(C(=O)NCCCCCCO)o1)C(C)(C)CCC2(C)C [Compound 617]
